Test results reported in PubChem BioAssay (NCI).
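How tested: cells in 96-well plates exposed to compound for 48 hours at five concentrations. Here, GI50 denotes the concentration required for 50% inhibition of growth. At the TGI there is no net growth.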

Assays:
Assay in all cases: inhibition of tumour cell growth, NCI panel, 48 h
SK-MEL-5 melanoma = tested on: SK-MEL-5 melanoma
KM12 colon = tested on: KM12 colon
HCT-15 colon = tested on: HCT-15 colon
A498 renal = tested on: A498 renal
SNB-75 CNS = tested on: SNB-75 CNS
OVCAR-4 ovarian = tested on: OVCAR-4 ovarian
SR leukemia = tested on: SR leukemia
CCRF-CEM leukemia = tested on: CCRF-CEM leukemia
SK-OV-3 ovarian = tested on: SK-OV-3 ovarian
HOP-62 NSCLC = tested on: HOP-62 NSCLC

Row | Structure (SMILES) | TGI (SK-MEL-5 melanoma) | TGI (KM12 colon) | TGI (HCT-15 colon) | TGI (A498 renal) | TGI (SNB-75 CNS) | TGI (OVCAR-4 ovarian) | TGI (SR leukemia) | TGI (CCRF-CEM leukemia) | TGI (SK-OV-3 ovarian) | TGI (HOP-62 NSCLC) | GI50 (SK-MEL-5 melanoma) | GI50 (KM12 colon) | GI50 (HCT-15 colon) | GI50 (A498 renal) | GI50 (SNB-75 CNS) | GI50 (OVCAR-4 ovarian) | GI50 (SR leukemia) | GI50 (CCRF-CEM leukemia) | GI50 (SK-OV-3 ovarian) | GI50 (HOP-62 NSCLC)
1 | CSc1nc(=O)c2nc(-c3cccs3)c(-c3cccs3)nc2n1C | > 100 µM | > 100 µM | > 100 µM | > 100 µM | 49.6 µM | > 100 µM | > 100 µM | > 100 µM | > 100 µM | 47.2 µM |  |  |  |  |  |  |  |  |  | 
2 | CNC(=S)N1CCN(C(C)=O)C1=S | > 100 µM | > 100 µM | > 100 µM | > 100 µM | 72.9 µM | 32.1 µM | > 100 µM | > 100 µM | > 100 µM | > 100 µM |  |  |  |  |  |  |  |  |  | 
3 | O=C(Nc1nn(C(=O)c2cccnc2)c(=O)s1)c1ccc(Cl)cc1 | > 100 µM | > 100 µM | > 100 µM | > 100 µM | 82.2 µM | > 100 µM | > 100 µM | > 100 µM | > 100 µM | > 100 µM |  |  |  |  |  |  |  |  |  | 
4 | CCN(CC)CCCCNc1c2ccc(Cl)cc2nc2ccc(OC)cc12 | 2.9 µM | 2.61 µM | 1.62 µM | 2.52 µM | 2.39 µM | 2.44 µM | 1.53 µM | 5.3 µM | 3.46 µM | 2.89 µM | 1.46 µM | 0.456 µM | 0.289 µM | 1.21 µM | 1.09 µM | 0.364 µM | 0.207 µM | 0.524 µM | 0.637 µM | 0.401 µM
5 | O=C1C=CC(=O)c2c(O)c(N3CCC[C@@H]3CO)c(Cl)c(O)c21 | 2.28 µM | 3.16 µM | 3.35 µM | 6.96 µM | 3.12 µM | 3.16 µM | 4.88 µM | 0.869 µM | 7.78 µM | 3.06 µM |  |  |  |  |  |  |  |  |  | 
6 | CN1c2ccccc2C2=C(c3ccccc3)CC[C@@H](C(=O)N3C4CC5CC[C@@]4(CS3(=O)=O)C5(C)C)[C@@H]21 (stereo not given in full) | > 100 µM | > 100 µM | > 100 µM | > 100 µM | > 100 µM | > 100 µM | > 100 µM | > 100 µM | > 100 µM | > 100 µM |  |  |  |  |  |  |  |  |  | 
7 | COc1ccc([C@]23CCC4(OCC(C)(C)CO4)[C@H]4CON(O[C@H](O[C@@H]5CCCCC5C(C)(C)c5ccccc5)C2)[C@@H]43)cc1OC (stereo not given in full) | 45.4 µM | > 100 µM | > 100 µM | > 100 µM | > 100 µM | > 100 µM | 49.4 µM | > 100 µM | > 100 µM | > 100 µM |  |  |  |  |  |  |  |  |  | 
8 | Clc1ccc(/C(=C/c2ccccc2)Cn2ccnc2)cc1 | 36.4 µM | > 100 µM | > 100 µM | 77.7 µM | > 100 µM | > 100 µM | 78.4 µM | > 100 µM | > 100 µM | > 100 µM |  |  |  |  |  |  |  |  |  | 
9 | CC(C)=CCc1c(O)cc2oc(-c3ccc(O)cc3O)cc(=O)c2c1O | 38.7 µM | 50.8 µM | > 63.2 µM | > 100 µM | 69.1 µM | 50.8 µM | > 65.6 µM | 28.2 µM | > 100 µM | > 92.8 µM |  |  |  |  |  |  |  |  |  | 
10 | CCC1([N+](=O)[O-])CN(N=O)C1 | > 100 µM | > 100 µM | > 100 µM | > 100 µM | > 100 µM | > 100 µM | > 100 µM | > 100 µM | > 100 µM | > 100 µM |  |  |  |  |  |  |  |  |  | 
11 | Cc1nc2c(=O)n(-c3ccccc3)c(=O)n(-c3ccccc3)c2o1 | > 100 µM | > 100 µM | > 100 µM | > 100 µM | > 100 µM | > 100 µM | > 100 µM | > 100 µM | > 100 µM | > 100 µM |  |  |  |  |  |  |  |  |  | 
12 | CCN(CC)C(=S)N/N=C(/c1ccccc1)c1ccccn1 | 4.83 µM | 19.6 µM | > 36.9 µM | 2.38 µM | 7.59 µM | 23.8 µM | 0.953 µM | 1.09 µM | 38.6 µM | 13.6 µM |  |  |  |  |  |  |  |  |  | 
13 | Cc1c(C(=O)NNc2ccccc2)n2c(=S)[nH]nc2c2ccccc12 | > 100 µM | > 100 µM | > 100 µM | > 100 µM | > 100 µM | > 100 µM | > 100 µM | > 100 µM | > 100 µM | > 100 µM |  |  |  |  |  |  |  |  |  | 
14 | O=c1c2cc([N+](=O)[O-])ccc2oc2nc3n(c(=O)c12)CCCS3 | > 100 µM | > 100 µM | > 100 µM | > 100 µM | > 100 µM | > 100 µM | > 100 µM | > 100 µM | > 100 µM | > 100 µM |  |  |  |  |  |  |  |  |  | 
15 | O=c1c2ccc(Cl)cc2oc2c(CNc3ccc(S(=O)(=O)Nc4ncccn4)cc3)cccc12 | > 100 µM | > 100 µM | > 100 µM | > 100 µM | > 100 µM | > 100 µM | > 100 µM | > 100 µM | > 100 µM | > 100 µM |  |  |  |  |  |  |  |  |  | 
